In patent publication US8143263B2, “Therapeutic agents” (Astrazeneca AB, priority 2008, dated 2012) one finds EC50 data, which are given here for 28 compounds.

SMILES strings stand for the structures.

Usually EC50 stands for the midpoint of the concentration-response curve.

This test concerns the target T1, recombinant human pancreatic GLK (Homo sapiens, UniProt P35557).
T1 sequence (P35557 1-465): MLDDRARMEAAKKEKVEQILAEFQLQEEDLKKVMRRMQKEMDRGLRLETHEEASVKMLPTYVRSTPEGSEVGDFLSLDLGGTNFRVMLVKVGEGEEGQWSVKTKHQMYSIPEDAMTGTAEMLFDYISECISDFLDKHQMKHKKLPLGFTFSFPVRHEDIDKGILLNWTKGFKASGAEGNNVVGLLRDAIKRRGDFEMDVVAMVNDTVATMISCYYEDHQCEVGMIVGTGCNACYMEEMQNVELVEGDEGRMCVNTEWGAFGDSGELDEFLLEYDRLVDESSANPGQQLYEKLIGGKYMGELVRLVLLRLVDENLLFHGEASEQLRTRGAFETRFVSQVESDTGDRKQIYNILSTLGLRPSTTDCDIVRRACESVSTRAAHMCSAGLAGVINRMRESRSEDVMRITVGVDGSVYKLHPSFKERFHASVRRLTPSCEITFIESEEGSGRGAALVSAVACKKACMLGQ
Put plainly: biochemical.
Take `Cc1ccc(C#N)cc1-n1ncc2c(O[C@@H](COCCO)C(=O)Nc3ccc(C#N)cn3)ncnc21` [Example 183, (2S)-2-(1-(5-cyano-2-methylphenyl)-1H-pyrazolo[3,4-d]pyrimidin-4-yloxy)-N-(5-cyanopyridin-2-yl)-3-(2-hydroxyethoxy)propanamide]: the EC50 came to 7700 nM. Consider `Cc1ccc(NC(=O)[C@H](COCCO)Oc2ncnc3c2cnn3-c2cc(C#N)ccc2C)nc1` [Example 184, (2S)-2-(1-(5-cyano-2-methylphenyl)-1H-pyrazolo[3,4-d]pyrimidin-4-yloxy)-3-(2-hydroxyethoxy)-N-(5-methylpyridin-2-yl)propanamide], for which the EC50 was 1500 nM. With `Cc1ccc(C#N)cc1-n1ncc2c(O[C@@H](COCCO)C(=O)Nc3ccc(Cl)cn3)ncnc21` [Example 185, (2S)—N-(5-chloropyridin-2-yl)-2-(1-(5-cyano-2-methylphenyl)-1H-pyrazolo[3,4-d]pyrimidin-4-yloxy)-3-(2-hydroxyethoxy)propanamide], the EC50 came to 3700 nM. `CCOC[C@H](Oc1ncnc2c1cnn2-c1cc(C)ccc1C)C(=O)Nc1ccc(C#N)cn1` [Example 186, (2S)—N-(5-cyanopyridin-2-yl)-2-(1-(2,5-dimethylphenyl)-1H-pyrazolo[3,4-d]pyrimidin-4-yloxy)-3-ethoxypropanamide]: the EC50 was 1800 nM. Take `Cc1cnc(NC(=O)[C@H](COC2CCC2)Oc2ncnc3c2cnn3-c2cnccc2C)cn1` [Example 188, (2S)-3-cyclobutoxy-N-(5-methylpyrazin-2-yl)-2-(1-(4-methylpyridin-3-yl)-1H-pyrazolo[3,4-d]pyrimidin-4-yloxy)propanamide]: the EC50 turned out to be 1100 nM. Then `C[C@H](CO)OC[C@H](Oc1ncnc2c1cnn2-c1ncccc1Cl)C(=O)Nc1ccc(C#N)cn1` [Example 189, (2S)-2-(1-(3-chloropyridin-2-yl)-1H-pyrazolo[3,4-d]pyrimidin-4-yloxy)-N-(5-cyanopyridin-2-yl)-3-((R)-1-hydroxypropan-2-yloxy)propanamide], with 600 nM.

In the case of `C[C@H](CO)OC[C@H](Oc1ncnc2c1cnn2-c1ncccc1Cl)C(=O)Nc1ccc(Cl)cn1` [Example 190, (2S)—N-(5-chloropyridin-2-yl)-2-(1-(3-chloropyridin-2-yl)-1H-pyrazolo[3,4-d]pyrimidin-4-yloxy)-3-((R)-1-hydroxypropan-2-yloxy)propanamide], the concentration giving a half-maximal response (EC50) was determined as 370 nM. Then `C[C@H](CO)OC[C@H](Oc1ncnc2c1cnn2-c1ncccc1Cl)C(=O)Nc1ccc(F)cn1` [Example 191, (2S)-2-(1-(3-chloropyridin-2-yl)-1H-pyrazolo[3,4-d]pyrimidin-4-yloxy)-N-(5-fluoropyridin-2-yl)-3-((R)-1-hydroxypropan-2-yloxy)propanamide], with 840 nM.

In the case of `C[C@@H](CO)OC[C@H](Oc1ncnc2c1cnn2-c1ncccc1Cl)C(=O)Nc1ccc(F)cn1` [Example 192, (2S)-2-(1-(3-chloropyridin-2-yl)-1H-pyrazolo[3,4-d]pyrimidin-4-yloxy)-N-(5-fluoropyridin-2-yl)-3-((S)-1-hydroxypropan-2-yloxy)propanamide], the 50% effective concentration (EC50) was 360 nM. Then `C[C@@H](CO)OC[C@H](Oc1ncnc2c1cnn2-c1ncccc1Cl)C(=O)Nc1ccc(Cl)cn1` [Example 193, (2S)—N-(5-chloropyridin-2-yl)-2-(1-(3-chloropyridin-2-yl)-1H-pyrazolo[3,4-d]pyrimidin-4-yloxy)-3-((S)-1-hydroxypropan-2-yloxy)propanamide], with 3300 nM; and `Cc1ccc(NC(=O)[C@H](COCCO)Oc2ncnc3c2cnn3-c2ccccc2Cl)nc1` [Example 194, (2S)-2-(1-(2-chlorophenyl)-1H-pyrazolo[3,4-d]pyrimidin-4-yloxy)-3-(2-hydroxyethoxy)-N-(5-methylpyridin-2-yl)propanamide], with 580 nM.

In the case of `Cc1ccc(NC(=O)[C@H](COCCO)Oc2ncnc3c2nnn3-c2ccccc2Cl)nc1` [Example 195, (2S)-2-(3-(2-chlorophenyl)-3H-[1,2,3]triazolo[4,5-d]pyrimidin-7-yloxy)-3-(2-hydroxyethoxy)-N-(5-methylpyridin-2-yl)propanamide], the half-maximal effective concentration (EC50) stood at 2000 nM. Then `CCOC[C@H](Oc1ncnc2c1nnn2-c1ccccc1Cl)C(=O)Nc1ccc(C#N)cn1` [Example 197, (2S)-2-(3-(2-chlorophenyl)-3H-[1,2,3]triazolo[4,5-d]pyrimidin-7-yloxy)-N-(5-cyanopyridin-2-yl)-3-ethoxypropanamide], with 600 nM. As to `Cc1ccccc1-n1nnc2c(O[C@@H](COCCO)C(=O)Nc3ccc(Cl)cn3)ncnc21` [Example 198, (2S)—N-(5-chloropyridin-2-yl)-3-(2-hydroxyethoxy)-2-(3-o-tolyl-3H-[1,2,3]triazolo[4,5-d]pyrimidin-7-yloxy)propanamide], the EC50 was determined as 2200 nM. Then `O=C(Nc1ccccn1)[C@H](COCCO)Oc1ncnc2c1cnn2-c1ccccc1C(F)(F)F` [Example 199, (2S)-3-(2-hydroxyethoxy)-N-(pyridin-2-yl)-2-(1-(2-(trifluoromethyl)phenyl)-1H-pyrazolo[3,4-d]pyrimidin-4-yloxy)propanamide], with 1100 nM. Turning to `C[C@H](CO)OC[C@H](Oc1ncnc2c1cnn2-c1ccccc1Cl)C(=O)Nc1ccccn1` [Example 200, (2S)-2-(1-(2-chlorophenyl)-1H-pyrazolo[3,4-d]pyrimidin-4-yloxy)-3-((R)-1-hydroxypropan-2-yloxy)-N-(pyridin-2-yl)propanamide], the 50% effective concentration (EC50) was 440 nM. In the case of `O=C(Nc1ccccn1)[C@H](COCCO)Oc1ncnc2c1cnn2-c1ccccc1Cl` [Example 201, (2S)-2-(1-(2-chlorophenyl)-1H-pyrazolo[3,4-d]pyrimidin-4-yloxy)-3-(2-hydroxyethoxy)-N-(pyridin-2-yl)propanamide], the EC50 came to 650 nM. Then `O=C(Nc1ccc(Cl)cn1)[C@H](COCCO)Oc1ncnc2c1cnn2-c1cccc(Cl)c1Cl` [Example 202, (2S)—N-(5-chloropyridin-2-yl)-2-(1-(2,3-dichlorophenyl)-1H-pyrazolo[3,4-d]pyrimidin-4-yloxy)-3-(2-hydroxyethoxy)propanamide], with 340 nM; and `N#Cc1ccc(NC(=O)[C@H](COCCO)Oc2ncnc3c2cnn3-c2cccc(Cl)c2Cl)nc1` [Example 203, (2S)—N-(5-cyanopyridin-2-yl)-2-(1-(2,3-dichlorophenyl)-1H-pyrazolo[3,4-d]pyrimidin-4-yloxy)-3-(2-hydroxyethoxy)propanamide], with 830 nM; and `Cc1ccc(NC(=O)[C@H](COC[C@H](C)O)Oc2ncnc3c2cnn3-c2ncccc2Cl)nc1` [Example 204, (2S)-2-(1-(3-chloropyridin-2-yl)-1H-pyrazolo[3,4-d]pyrimidin-4-yloxy)-3-((S)-2-hydroxypropoxy)-N-(5-methylpyridin-2-yl)propanamide], with 1300 nM. Turning to `Cc1ccc(NC(=O)[C@H](CN2CC(O)C2)Oc2ncnc3c2cnn3-c2ccccc2Cl)nc1` [Example 205, (2S)-2-(1-(2-chlorophenyl)-1H-pyrazolo[3,4-d]pyrimidin-4-yloxy)-3-(3-hydroxyazetidin-1-yl)-N-(5-methylpyridin-2-yl)propanamide], the EC50 was 240 nM. In the case of `Cc1ccc(NC(=O)[C@H](CN2CC(O)C2)Oc2ncnc3c2cnn3-c2ncccc2Cl)nc1` [Example 206, (2S)-2-(1-(3-chloropyridin-2-yl)-1H-pyrazolo[3,4-d]pyrimidin-4-yloxy)-3-(3-hydroxyazetidin-1-yl)-N-(5-methylpyridin-2-yl)propanamide], the EC50 is 570 nM.

As to `Cc1c(C#N)cccc1-n1ncc2c(O[C@@H](COCCO)C(=O)Nc3ccc(C#N)cn3)ncnc21` [Example 207, (2S)-2-(1-(3-cyano-2-methylphenyl)-1H-pyrazolo[3,4-d]pyrimidin-4-yloxy)-N-(5-cyanopyridin-2-yl)-3-(2-hydroxyethoxy)propanamide], the 50% effective concentration (EC50) worked out at 5000 nM. With `Cc1ccc(NC(=O)[C@H](COCCO)Oc2ncnc3c2cnn3-c2cccc(C#N)c2C)nc1` [Example 208, (2S)-2-(1-(3-cyano-2-methylphenyl)-1H-pyrazolo[3,4-d]pyrimidin-4-yloxy)-3-(2-hydroxyethoxy)-N-(5-methylpyridin-2-yl)propanamide], the EC50 is 2800 nM. Then `Cc1c(C#N)cccc1-n1ncc2c(O[C@@H](COCCO)C(=O)Nc3ccc(Cl)cn3)ncnc21` [Example 209, (2S)—N-(5-chloropyridin-2-yl)-2-(1-(3-cyano-2-methylphenyl)-1H-pyrazolo[3,4-d]pyrimidin-4-yloxy)-3-(2-hydroxyethoxy)propanamide], with 1500 nM; and `CCOC[C@H](Oc1ncnc2c1cnn2-c1nccn1C)C(=O)Nc1ccc(Cl)cn1` [Example 210, (2S)—N-(5-chloropyridin-2-yl)-3-ethoxy-2-(1-(1-methyl-1H-imidazol-2-yl)-1H-pyrazolo[3,4-d]pyrimidin-4-yloxy)propanamide], with 1200 nM. As to `Cc1ccc(NC(=O)[C@H](COC(C)C)Oc2ncnc3c2cnn3-c2nccn2C)nc1` [Example 211, (2S)-3-isopropoxy-2-(1-(1-methyl-1H-imidazol-2-yl)-1H-pyrazolo[3,4-d]pyrimidin-4-yloxy)-N-(5-methylpyridin-2-yl)propanamide], the EC50 was 1100 nM. Then `O=C(Nc1ccc(Cl)cn1)[C@H](CCCO)Oc1ncnc2c1cnn2-c1ncccc1Cl` [Example 212, (2S)—N-(5-chloropyridin-2-yl)-2-(1-(3-chloropyridin-2-yl)-1H-pyrazolo[3,4-d]pyrimidin-4-yloxy)-5-hydroxypentanamide], with 490 nM.
